Measured values published in US20210023089A1, “Compositions Useful for Treating Herpes Simplex Keratitis, and Methods Using Same” (priority 2013, published 2021).

Assays:
HSV-1 [1] = assay: qPCR of viral genome replication in HSV-1 infected hTCEpi cells; assay type: cell-based, HSV-1 (KOS strain); details: for viral genome replication (qPCR): MOI 0.1, inhibitor 10 μM
Description: The following strains of HSV-1 were used: KOS, ICPO-null, HFEM, and tsB7. Subconfluent monolayers of cells were grown in six-well plates. Drug treatments were administered 45 minutes prior to infection and continued for the entire duration of each experiment. Unless indicated otherwise, KU-55933 (Batch No. 5, 99.7% purity; Tocris Bioscience, Bristol, UK) was used at 10 μM final concentration, phosphonoacetic acid (PAA) at 400 μg/mL (Sigma-Aldrich, St. Louis, Mo.), and acyclovir at 50 μg/mL (Sigma-Aldrich). KU-55933 was dissolved in dimethyl sulfoxide (DMSO), and the final concentration of DMSO in both KU-55933 and mock treatment in the in vitro and the ex vivo experiments was 0.1%.
Infections with KOS strain of HSV-1 were carried out in six-well plates in a 200 μL inoculum volume at 37° C. for 1 hour with intermittent rocking. The cells were then rinsed and overlaid with fresh medium.
Viral genome replication and transcription were measured by quantitative PCR (qPCR). Total DNA and RNA from infected cells were isolated using the DNeasy Blood & Tissue Kit and the RNeasy Mini Kit, respectively (QIAGEN, Hilden, Germany). RNA was converted to cDNA using qScript (Quanta BioSciences, Gaithersburg, Md.). Real-time qPCR was performed with SYBR Green (Bio-Rad, Hercules, Calif.). Target primers for UL30 (DNA polymerase catalytic subunit) and reference primers for glyceraldehyde 3-phosphate dehydrogenase (GAPDH) were used to measure genome replication. Transcription of the three gene families was measured with primers for RL2 (ICPO), UL30 (DNA polymerase catalytic subunit), and UL44 (gC), with reference primers for the 18S ribosomal RNA (rRNA).
Cells were grown in 6-well plates and used in experiments at −80% confluence. Drug treatments were administered 45 min prior to infection and continued for the entire duration of each experiment. Unless indicated otherwise, Chk2 inhibitor II (>98% purity by HPLC) was used at 10 μM final concentration, and phosphonoacetic acid (PAA) at 400 μg/ml (both from Sigma-Aldrich, St. Louis, Mo.). Chk2 inhibitor II was dissolved in DMSO such that the final concentration of DMSO in both Chk2 inhibitor II and mock treatment was 0.1%. Infections with KOS strain of HSV-1 were carried out in 6-well plates in a 200 μl inoculum volume at 37° C. for 1 hour with intermittent rocking. The cells were then thoroughly rinsed and overlaid with fresh medium.
Total DNA from infected cells and corneas was isolated using the DNeasy Blood & Tissue Kit (QIAGEN, Hilden, Germany). Real time quantitative PCR was performed with SYBR Green (Bio-Rad, Hercules, Calif.). Target primers for UL30 (DNA polymerase catalytic subunit) and reference primers for GAPDH were used to measure viral genome abundance. Primer sequences were based on the KOS genome (accession #JQ673480.1).

HSV-1 [2] = assay: HSV-1 cytopathic effect in infected hTCEpi cells (phase contrast); assay type: cell-based, HSV-1 (KOS strain); details: MOI 0.1, inhibitor 10 μM, 20 hpi
Description: All cells were cultured at 37° C. and 5% CO2 and supplemented with 100 U/mL penicillin and […]. Human corneal epithelial cells immortalized with hTERT (hTCEpi; Robertson, et al., 2005, Invest Ophthalmol Vis Sci. 46:470-478) were grown in complete keratinocyte growth medium 2 (KGM-2; Lonza, Basel, Switzerland). African green monkey kidney fibroblasts (CV-1; American Type Culture Collection, Manassas, Va.) were grown in Dulbecco's modified Eagle's medium (DMEM; Cellgro, Manassas, Va.) supplemented with 10% FBS. The KOS strain of HSV-1 was used in the in vitro and ex vivo infections, whereas McKrae strain was used for in vivo mouse experiments, and TK mutant dlsptk strain (Coen et al., 1989, Proc Natl Acad Sci USA 86:4736-4740) was used in the drug resistance experiments. All viral stocks were titered on CV-1 monolayers.
The following strains of HSV-1 were used: KOS, ICPO-null, HFEM, and tsB7. Subconfluent monolayers of cells were grown in six-well plates. Drug treatments were administered 45 minutes prior to infection and continued for the entire duration of each experiment. Unless indicated otherwise, KU-55933 (Batch No. 5, 99.7% purity; Tocris Bioscience, Bristol, UK) was used at 10 μM final concentration, phosphonoacetic acid (PAA) at 400 μg/mL (Sigma-Aldrich, St. Louis, Mo.), and acyclovir at 50 μg/mL (Sigma-Aldrich). […]

cleaved caspase-3 = assay: Cleaved caspase-3 immunofluorescence in HSV-1 infected explanted human corneas; assay type: cell-based; details: 10 μM, 48 hpi, vs mock-treated
Description: Human corneas were obtained from the Lions Eye Bank of Delaware Valley. Rabbit corneas were excised from intact fresh eyeballs of young (8-12 weeks) albino rabbits (Pel-Freez Biologicals, Rogers, Ark.). Protocol (Alekseev et al., 2012, J Vis Exp 69:e3631) for ex vivo corneal culture, infection, and treatment was followed closely. Briefly, corneoscleral buttons were excised and rinsed in PBS containing 200 U/mL penicillin and 200 μg/mL streptomycin. The endothelial concavity was filled with culture medium containing 1% low melting temperature agarose. The corneas were cultured epithelial side up in MEM medium supplemented with nonessential amino acids (1×), 2 mM […], 200 U/mL penicillin, and 200 μg/mL streptomycin. The next day, they were infected with 1×10^4 plaque forming units (PFU)/cornea of strain KOS HSV-1 for 1 hour, rinsed, and overlaid with fresh medium. Drug treatments were administered at the same concentrations as for cultured cells. For KU-55933 bioavailability assessment, corneas were treated with bleomycin (200 μg/mL) for 1 hour. The epithelial cell layer was collected by scraping to isolate DNA or protein. […] Treatment toxicity was assessed by briefly staining the cornea with fluorescein (1% wt/vol in PBS) and imaging the epithelial defects with 464-nm wavelength blue light (LDP LLC, Carlstadt, N.J.). […]

Structure (SMILES) | viral genome replication (qPCR) (HSV-1 [1]; hTCEpi cells) | viral genome levels (qPCR) at high viral load (HSV-1 [1]; hTCEpi cells, MOI 5, 10 μM) | cytopathic effect (CPE) of HSV-1 (HSV-1 [2]) | cleaved caspase-3 staining (apoptosis) in corneal epithelium (cleaved caspase-3) | effect of addition on the dose-response curve of the partner drug (HSV-1 [1]; hTCEpi, MOI 0.1, KU-55933 0-7 μM with acyclovir 0-1.5 μg/mL, 16 hpi)
NC(=O)c1ccc2[nH]c(-c3ccc(Oc4ccc(Cl)cc4)cc3)nc2c1 [Chk2 inhibitor II, 2-(4-(4-chlorophenoxy)phenyl)-1H-benzimidazole-5-carboxamide] | profoundly reduced | reduced yet still substantial decrease | almost completely eliminated | abrogated | –
O=c1cc(-c2cccc3c2Sc2ccccc2S3)oc(N2CCOCC2)c1 [KU-55933, 2-(morpholin-4-yl)-6-(thianthren-1-yl)-pyran-4-one] | sharp reduction | – | prevented | reduction | shifted the acyclovir dose-response curve to the left
